Where two headings read alike, the source gives them in different places. Marks after values point to notes of the source that are not given here.
How the values were obtained:
HLA-A*68:01 = HLA-A*68:01 (Homo sapiens, UniProt P04439, A269V/D185E/E176V/E277Q/E87N/F33Y/G231S/I121M/I166T/I218V/L180W/L300P/L318F/N151K/P208A/P217A/Q86R/R169H/T345S); format: binding; conditions: percent relative the binding of positive control peptide […]; duplicated experiments; positive binder >40%
HLA-B*58:01 [1] = biological target: T1, HLA-B*58:01 (Homo sapiens, UniProt P01889, A329T/C349S/D201E/D98Y/E176V/E187L/E204Q/E69T/G107R/I218V/I90N/K202T/L105A/L119I/N104I/N87E/Q89R/Q94S/R106L/R155S/R180L/R86G/S101N/S121R/S35A/S48A/T118I/V127L/V306I/V36M/Y140S/Y91M); format: binding; conditions: percent relative the binding of positive control peptide […]; duplicated experiments; positive binder >40%
HLA-B*58:01 [2] = biological target: T1, HLA-B*58:01; format: binding
HLA-B*58:01 [3] = biological target: T1, HLA-B*58:01; format: binding; conditions: time points 0-8 h
HLA-C*07:01 [4] = biological target: T2, HLA-C*07:01 (Homo sapiens, UniProt P10321, K90N/S123Y); format: binding; conditions: percent relative the binding of positive control peptide […]; duplicated experiments; positive binder >40%
HLA-C*07:01 [5] = biological target: T2, HLA-C*07:01; assay: affinity assay (ED50); format: binding
HLA-C*07:01 [6] = biological target: T2, HLA-C*07:01; assay: off-rate assay (t1/2); format: binding; conditions: time points 0-8 h
HLA-A*02:01 [7] = biological target: T3, HLA-A*02:01 (Homo sapiens, UniProt P04439, D140Y/D185E/D98H/E176V/E277Q/G131W/G231S/I119V/I121R/I166T/I218V/L300P/L318F/N151K/N90K/P208A/P217A/Q86G/Q94H/R138H/R169H/T345S); conditions: cited from earlier work
HLA-A*02:01 [8] = biological target: T3, HLA-A*02:01; conditions: cited from earlier work; remark: listed apart in the source
HLA-A*02:01 [9] = biological target: T3, HLA-A*02:01; conditions: cited from earlier work; remark: listed apart in the source
HLA-A*24:02 [10] = biological target: T4, HLA-A*24:02 (Homo sapiens, UniProt P04439, D101N/D140Y/D185E/E176V/E190D/F33S/G103R/G107R/I119L/I121M/I306V/K335N/L105A/L180Q/L300P/N151K/N90K/Q86E/Q94H/R106L/R138H/R89G/T104I/T345S/V100E/W191G/Y123F); conditions: percent relative the binding of a positive control peptide; […]; cited from earlier work
HLA-A*24:02 [11] = biological target: T4, HLA-A*24:02; conditions: cited from earlier work
HLA-A*24:02 [12] = biological target: T4, HLA-A*24:02; conditions: cited from earlier work; remark: listed apart in the source
HLA-A*30:01 [13] = biological target: T5, HLA-A*30:01 (Homo sapiens, UniProt P04439, D140H/D185E/E176W/F33S/G80R/H175R/K168Q/R138E/R41S); conditions: cited from earlier work
HLA-A*30:01 [14] = biological target: T5, HLA-A*30:01; conditions: cited from earlier work; remark: listed apart in the source
HLA-A*30:01 [15] = biological target: T5, HLA-A*30:01; conditions: cited from earlier work; remark: listed apart in the source
HLA-A*30:02 [16] = biological target: T6, HLA-A*30:02 (Homo sapiens, UniProt P04439, D101N/D140H/D185E/E176R/F33S/G80R/H175R/K168Q/Q94H/R138E/R41S/V100E); conditions: cited from earlier work
HLA-A*30:02 [17] = biological target: T6, HLA-A*30:02; conditions: cited from earlier work; remark: listed apart in the source
HLA-A*30:02 [18] = biological target: T6, HLA-A*30:02; conditions: cited from earlier work; remark: listed apart in the source
HLA-B*07:02 [19] = biological target: T7, HLA-B*07:02 (Homo sapiens, UniProt P01889); conditions: cited from earlier work
HLA-B*07:02 [20] = biological target: T7, HLA-B*07:02; conditions: cited from earlier work; remark: listed apart in the source
HLA-B*07:02 [21] = biological target: T7, HLA-B*07:02; conditions: cited from earlier work; remark: listed apart in the source
[22] = percent relative the binding of a positive control peptide, […]
[23] = percent relative the binding of a positive control peptide, wild-type epitopes marked **

Row | Sequence | Bind B*58:01 (HLA-B*58:01 [1]) | Aff B*58:01 (ED50) (HLA-B*58:01 [2]) | O-rate B*58:01 (t1/2) (HLA-B*58:01 [3]) | Bind C*07:01 (HLA-C*07:01 [4]) | Aff C*07:01 (ED50) (HLA-C*07:01 [5]) | O-rate C*07:01 (t1/2) (HLA-C*07:01 [6]) | Aff A*02:01 (ED50) (HLA-A*02:01 [8]) | O-rate A*02:01 (t1/2) (HLA-A*02:01 [9]) | Bind A*24:02 (HLA-A*24:02 [10]) | Aff A*24:02 (ED50) (HLA-A*24:02 [11]) | O-rate A*24:02 (t1/2) (HLA-A*24:02 [12]) | Aff A*30:01 (ED50) (HLA-A*30:01 [14]) | O-rate A*30:01 (t1/2) (HLA-A*30:01 [15]) | Aff A*30:02 (ED50) (HLA-A*30:02 [17]) | O-rate A*30:02 (t1/2) (HLA-A*30:02 [18]) | Bind B*07:02 (HLA-B*07:02 [19]; [22]) | Aff B*07:02 (ED50) (HLA-B*07:02 [20]) | O-rate B*07:02 (t1/2) (HLA-B*07:02 [21]) | Bind A*30:02 (HLA-A*30:02 [16]; [22]) | also measured
1 | IMYNYPAML [Rv0288_4–12] | 110% | 200 nM | 1.0 h | 67% | 200 nM | 0.2 h | 800 nM | 26.9 h | 107* percent | 100 nM | 1.6 h | 5000 nM | 0.5 h | 8 nM | 3.1 h | 35* percent | 30000 nM | 1.6 h |  | Bind A*68:01 (HLA-A*68:01): 0%; Bind A*02:01 (HLA-A*02:01 [7]; [22]): 94* percent; Bind A*30:01 (HLA-A*30:01 [13]; [22]): 146** percent; Bind A*30:02 (HLA-A*30:02 [16]): 91** percent
2 | LVRAYHAMS [Rv0288_65–73wt] |  |  |  |  |  |  |  |  |  |  |  |  |  |  |  |  |  |  |  | Bind A*30:01 (HLA-A*30:01 [13]; [23]): 158** percent; Aff A*30:01 (ED50) (HLA-A*30:01 [14]; wild-type epitopes marked **): 2000 nM; O-rate A*30:01 (t1/2) (HLA-A*30:01 [15]; wild-type epitopes marked **): 1.8 h; Bind A*30:02 (HLA-A*30:02 [16]; [23]): 75** percent; Aff A*30:02 (ED50) (HLA-A*30:02 [17]; wild-type epitopes marked **): 2000 nM; O-rate A*30:02 (t1/2) (HLA-A*30:02 [18]; wild-type epitopes marked **): 1.0 h
3 | QIMYNYPAM [Rv0288_3–11wt] | 34% | 10000 nM | 0.4 h |  |  |  | 1000 nM | 1.1 h | 55* percent | 1000 nM | 0.1 h | 4000 nM | 0.8 h | 40 nM | 1.1 h |  | 800000 nM | 1.5 h | 90** percent | Bind A*02:01 (HLA-A*02:01 [7]): 68* percent; Bind A*30:01 (HLA-A*30:01 [13]): 163** percent; Bind B*07:02 (HLA-B*07:02 [19]): 28* percent
4 | RAYHAMSST [Rv0288_67–75wt] | 39% | 10000 nM | 0.2 h | 35% | 10000 nM | 0.2 h |  |  |  |  |  |  |  | 1000 nM | 1.2 h | 39* percent | 20000 nM | 0.8 h | 73** percent | 

Reference: publication PMC3608651, “A Broad Profile of Co-Dominant Epitopes Shapes the Peripheral Mycobacterium tuberculosis Specific CD8+ T-Cell Immune Response in South African Patients with Active Tuberculosis” (PLoS ONE, 2013)
